Experimental data reported in patent publication US8450308B2 (Vitae Pharmaceuticals, Inc., priority 2008, dated 2013).
Read-outs that look alike come from different tables or passages of the source.

Target: T1, truncated human beta-secretase (residues 1-458, His6-tagged at the C-terminus) (Homo sapiens, UniProt P56817)
T1 construct: truncated human beta-secretase (residues 1-458, His6-tagged at the C-terminus); His6 (C); made in house; host or cells: insect cells D. melanogaster S2 (baculovirus expression system (so in the source))
T1 sequence (P56817 22-458): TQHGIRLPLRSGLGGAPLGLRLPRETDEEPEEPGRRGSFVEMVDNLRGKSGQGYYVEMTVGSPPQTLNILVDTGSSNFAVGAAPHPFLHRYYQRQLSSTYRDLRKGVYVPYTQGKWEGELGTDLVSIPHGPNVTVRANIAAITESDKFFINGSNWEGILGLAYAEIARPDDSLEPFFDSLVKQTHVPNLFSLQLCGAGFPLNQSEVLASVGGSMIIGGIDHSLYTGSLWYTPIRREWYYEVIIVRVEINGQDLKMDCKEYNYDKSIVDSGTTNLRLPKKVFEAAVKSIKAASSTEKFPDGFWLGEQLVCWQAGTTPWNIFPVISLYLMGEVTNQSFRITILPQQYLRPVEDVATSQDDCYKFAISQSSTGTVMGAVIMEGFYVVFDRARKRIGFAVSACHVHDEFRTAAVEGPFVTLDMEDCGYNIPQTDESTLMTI
Assay: BACE fluorescence quench assay
Type: biochemical
Method: The assay was performed at room temperature in 96-well white opaque Optiplates aque Optiplates (PerkinElmer, Waltham, Mass.) in a total volume of 200 μl of the incubation mixture containing 50 mM sodium acetate buffer, pH 4.5, 0.4 μM FRET substrate, 2.4 nM enzyme, 5% DMSO, and 0.05% Brij-35. The tested compounds were serially diluted in DMSO and pre-incubated with the substrate. The reaction was started by addition of enzyme, and the progress of the reaction was followed by measuring fluorescence with an excitation wavelength of 480 nm and an emission wavelength of 520 nm. Ten measurements were taken every 5-10 min, and the intensity of fluorescence was regressed against time in order to derive velocities of reaction in all 96 wells. […] IC50 values were calculated by fitting percent inhibition vs. inhibitor concentration into a four-parametric logistic model using XLFit software (IDBS, Guildford, UK).

[1] = in vitro enzyme activity, BACE fluorescence assay, pH 4.5, read-out: IC50

Row | IC50 [1] | Compound | IC50
1 | 10000 to 50000 nM | CCCCNC(=O)c1cccc(-c2ccc3c(c2)[C@]2(C[C@H](c4ccccc4)O3)N=C(N)N(C)C2=O)c1 [Compound 55a, 3-((2R,4S)-2′-amino-1′-methyl-5′-oxo-2-phenyl-1′,5′-dihydrospiro[chroman-4,4′-imidazole]-6-yl)-N-butylbenzamide] | 
2 | 500 to 1000 nM | CN1OC2(C[C@H]([C@@H]3CCOC(C)(C)C3)Oc3ccc(-c4ccc(F)c(F)c4)cc32)N=C1N (some centres unmarked) [Compound 362] | 
3 |  | COc1cccc(-c2ccc3c(c2)C2(CC(c4ccccc4)O3)N=C(N)N(C)C2=O)c1 (centres unmarked) [Compound 13, 2′-amino-6-(3-methoxyphenyl)-1′-methyl-2-phenylspiro[chroman-4,4′-imidazol]-5′(1′H)-one] | 100 to 500 nM
4 | 500 to 1000 nM | Cc1ccc(C#N)cc1-c1ccc2c(c1)C1(CC3(CCCOC3)O2)N=C(N)N(C)C1=O (centres unmarked) [Compound 368] | 
5 | 1000 to 5000 nM | CC(C)=CC(CCO)C1CC2(N=C(N)N(C)O2)c2cc(-c3cccc(C#N)c3F)ccc2O1 (centres unmarked) [Compound 430] | 
6 | 5000 to 10000 nM | CC(C)=CC(CCO)C1CC2(N=C(N)N(C)O2)c2cc(-c3cccc(F)c3)ccc2O1 (centres unmarked) [Compound 436] | 
7 | 1000 to 5000 nM | CN1OC2(CC(C3CCCC3)Oc3ccc(-c4cccc(C#N)c4)cc32)N=C1N (centres unmarked) [Compound 99] | 
8 | 1000 to 5000 nM | CSc1cccc(-c2ccc3c(c2)[C@]2(C[C@@]4(CCCOC4)O3)N=C(N)N(C)C2=O)c1 [Compound 405] | 
9 | 1 to 100 nM | CN1C(=O)[C@@]2(C[C@]3(CCCOC3)Oc3ccc(-c4cccc(C#N)c4)cc32)N=C1N [Compound 72a] | 
10 | 1 to 100 nM | CN1C(=O)C2(CC3(CCCOC3)Oc3ccc(-c4cccc(C#N)c4)cc32)N=C1N (centres unmarked) [Compound 72] | 
11 |  | CN1C(=O)C2(CC(c3ccccc3)Oc3ccc(-c4ccc(C(F)(F)F)cc4)cc32)N=C1N (centres unmarked) [Compound 56, 2′-amino-1′-methyl-2-phenyl-6-(4-(trifluoromethyl)phenyl)spiro[chroman-4,4′-imidazol]-5′(1′H)-one] | 10000 to 50000 nM
12 | 100 to 500 nM | CSc1cccc(-c2ccc3c(c2)[C@]2(C[C@]4(CCCOC4)O3)N=C(N)N(C)C2=O)c1 [Compound 296] | 
13 | 100 to 500 nM | COc1ccc(F)c(-c2ccc3c(c2)C2(CC(C4CCCOC4)O3)N=C(N)N(C)O2)c1 (centres unmarked) [Compound 91] | 
14 | 1000 to 5000 nM | CN1OC2(CC3(CCCOC3)Oc3ccc(-c4cccc(F)c4)cc32)N=C1N (centres unmarked) [Compound 119] | 
15 | 10000 to 50000 nM | CN1OC2(CC(c3ccccc3)Oc3ccc(Oc4ccccc4)cc32)N=C1N (centres unmarked) [Compound 108, 2′-methyl-6-phenoxy-2-phenyl-2′H-spiro[chroman-4,5′-[1,2,4]oxadiazol]-3′-amine] | 
16 | 10000 to 50000 nM | CN1OCC2(CC3(CCCOC3)Oc3ccc(-c4cccc(C#N)c4)cc32)N=C1N (centres unmarked) [Compound 455, 3-(spiro[spiro[chroman-2,1′-(3-oxacyclohexane)]-4,5′-(3-amino-2-methyl-2,6-dihydro-[1,2,4]oxadiazine)]-6-yl)benzonitrile] | 
17 | 5000 to 10000 nM | CC(C)=CC(CCO)[C@@H]1C[C@@]2(N=C(N)N(C)O2)c2cc(-c3cc(F)cc(F)c3)ccc2O1 (some centres unmarked) [Compound 444] | 
18 | 1000 to 5000 nM | CN1OC2(CC3(CCC(Oc4ccccc4)CC3)Oc3ccc(-c4cccc(C#N)c4)cc32)N=C1N (centres unmarked) [Compound 383] | 
19 | 100 to 500 nM | CN1C(=O)C2(CC(c3ccccc3)Oc3ccc(-c4cccc(C#N)c4)cc32)N=C1N (centres unmarked) [Compound 2, 3-(2′-amino-1′-methyl-5′-oxo-2-phenyl-1′,5′-dihydrospiro[chroman-4,4′-imidazole]-6-yl)benzonitrile] | 
20 | 500 to 1000 nM | CN1OC2(CC(C3CCCOC3)Oc3ccc(-c4cccc(F)c4)cc32)N=C1N (centres unmarked) [Compound 93, 6-(3-fluorophenyl)-2′-methyl-2-(tetrahydro-2H-pyran-3-yl)-2′H-spiro[chroman-4,5′-[1,2,4]oxadiazol]-3′-amine] | 
21 | 100 to 500 nM | CC1C2(CCCOC2)Oc2ccc(-c3cccc(C#N)c3)cc2C12N=C(N)N(C)O2 (centres unmarked) [Compound 111] | 

Row | IC50 [1] | Compound | IC50
22 | 5000 to 10000 nM | CN1C(=O)[C@@]2(C[C@]3(CCCOC3)Oc3ccc(-c4ccc5cn[nH]c5c4)cc32)N=C1N [Compound 433] | 
23 | 5000 to 10000 nM | CN1OC2(CC(c3ccncc3)Oc3ccc(-c4cccc(C#N)c4)cc32)N=C1N (centres unmarked) [Compound 105, 3-(3′-amino-2′-methyl-2-(pyridin-4-yl)-2′H-spiro[chroman-4,5′-[1,2,4]oxadiazole]-6-yl)benzonitrile] | 
24 | 100 to 500 nM | CN1OC2(C[C@H]([C@H]3CCOC(C)(C)C3)Oc3ccc(-c4cccc(C#N)c4F)cc32)N=C1N (some centres unmarked) [Compound 312] | 
25 |  | CN(C)C(=O)c1ccccc1-c1ccc2c(c1)C1(CC(c3ccccc3)O2)N=C(N)N(C)C1=O (centres unmarked) [Compound 66, 2-(2′-amino-1′-methyl-5′-oxo-2-phenyl-1′,5′-dihydrospiro[chroman-4,4′-imidazole]-6-yl)-N,N-dimethylbenzamide] | 10000 to 50000 nM
26 | 5000 to 10000 nM | CC1CCC2(C1)CC1(N=C(N)N(C)O1)c1cc(-c3cccc(C#N)c3)ccc1O2 (centres unmarked) [Compound 125] | 
27 | 100 to 500 nM | CN1OC2(N=C1N)c1cc(-c3cccc(C#N)c3)ccc1OC1(CCCOC1)C2F (centres unmarked) [Compound 109] | 
28 | 1000 to 5000 nM | CN1OC2(CC3(CCCOC3)Oc3ccc(-c4cccc(C#N)c4)cc32)N=C1N (centres unmarked) [Compound 117] | 
29 | 1000 to 5000 nM | CC(C)=CC(CCO)C1CC2(N=C(N)N(C)O2)c2cc(-c3cc(F)cc(Cl)c3)ccc2O1 (centres unmarked) [Compound 404] | 
30 | 500 to 1000 nM | CN1C(=O)[C@@]2(C[C@@]3(CCCOC3)Oc3ccc(-c4cc(F)cc(F)c4F)cc32)N=C1N [Compound 359] | 
31 | 100 to 500 nM | CN1C(=O)C2(CC3(CCCCC3)Oc3ccc(-c4cccc(C#N)c4)cc32)N=C1N (centres unmarked) [Compound 76] | 
32 | 500 to 1000 nM | CN1C(=O)C2(CC3(CCCOC3)Oc3ccc(-c4ccc(F)c(F)c4)cc32)N=C1N (centres unmarked) [Compound 351] | 
33 |  | CN1C(=O)C2(CC(c3ccccc3)Oc3ccc(-c4cccc(C(F)(F)F)c4)cc32)N=C1N (centres unmarked) [Compound 30, 2′-amino-1′-methyl-2-phenyl-6-(3-(trifluoromethyl)phenyl)spiro[chroman-4,4′-imidazol]-5′(1′H)-one] | 1000 to 5000 nM
34 | 100 to 500 nM | CN1OC2(CC(C3CC(C)(C)OC(C)(C)C3)Oc3ccc(-c4cccc(C#N)c4)cc32)N=C1N (centres unmarked) [Compound 327] | 
35 | 1000 to 5000 nM | CCOC(=O)c1cccc(-c2ccc3c(c2)[C@]2(C[C@@]4(CCCOC4)O3)N=C(N)N(C)C2=O)c1 [Compound 429] | 
36 | 1000 to 5000 nM | Cc1ccc(F)cc1-c1ccc2c(c1)[C@]1(C[C@@]3(CCCOC3)O2)N=C(N)N(C)C1=O [Compound 385] | 
37 | 1000 to 5000 nM | CC(C)=CC(CCO)C1CC2(N=C(N)N(C)O2)c2cc(-c3cccc(Cl)c3)ccc2O1 (centres unmarked) [Compound 412] | 
38 | 100 to 500 nM | Cc1cc(C)cc(-c2ccc3c(c2)[C@]2(C[C@@]4(CCCOC4)O3)N=C(N)N(C)C2=O)c1 [Compound 340] | 
39 | 1000 to 5000 nM | CN1OC2(CC(c3ccccc3)Oc3ccc(-c4cccc(C#N)c4)cc32)N=C1N (centres unmarked) [Compound 96, 3-(3′-amino-2′-methyl-2-phenyl-2′H-spiro[chroman-4,5′-[1,2,4]oxadiazole]-6-yl)benzonitrile] | 
40 | 1000 to 5000 nM | Cc1ccc(C#N)cc1-c1ccc2c(c1)[C@]1(C[C@@]3(CCCOC3)O2)N=C(N)N(C)C1=O [Compound 413] | 
41 | 100 to 500 nM | CN1C(=O)C2(CC(c3cccc(F)c3)Oc3ccc(-c4cccc(C#N)c4)cc32)N=C1N (centres unmarked) [Compound 7] | 
